According to ChEMBL document CHEMBL4330083, “Synthesis and evaluation of isoprenylation-resveratrol dimer derivatives against Alzheimer's disease” (Eur J Med Chem, 2019):

Assays:
Assay type in all cases: functional
PC-12 [1] = test: Neuroprotection against H2O2-induced oxidative damage in rat PC12 cells assessed as necrotic cells at 2.5 uM after 24 hrs in presence of H2O2 by annexin V-FITC/propidium iodide staining based flow cytometric analysis (reference value: 0.4%)
PC-12 [2] = test: Neuroprotection against H2O2-induced oxidative damage in rat PC12 cells assessed as early apoptotic cells at 10 uM after 24 hrs in presence of H2O2 by annexin V-FITC/propidium iodide staining based flow cytometric analysis (reference value: 29.3%)
PC-12 [3] = test: (§1) Neuroprotection against H2O2-induced oxidative damage in rat PC12 cells assessed as reduction in ROS production by measuring mean fluorescence intensity at 10 uM preincubated for 4 hrs followed by H2O2 addition measured after 24 hrs by DCFH-DA staining-based flow cytometric analysis (reference value: 102489)
PC-12 [4] = test: Neuroprotection against H2O2-induced oxidative damage in rat PC12 cells assessed as late apoptotic cells at 10 uM after 24 hrs in presence of H2O2 by annexin V-FITC/propidium iodide staining based flow cytometric analysis (reference value: 6.2%)
PC-12 [5] = test: Neuroprotection against H2O2-induced oxidative damage in rat PC12 cells assessed as early apoptotic cells at 2.5 uM after 24 hrs in presence of H2O2 by annexin V-FITC/propidium iodide staining based flow cytometric analysis (reference value: 29.3%)
[6] = Neuroprotection against LPS-induced inflammation in human BV2 cells assessed as reduction in ROS production by measuring mean fluorescence intensity at 10 uM after 18 hrs by DCFH-DA staining-based flow cytometric analysis (reference value: 56792)
PC-12 [7] = test: Neuroprotection against H2O2-induced oxidative damage in rat PC12 cells assessed as late apoptotic cells at 2.5 uM after 24 hrs in presence of H2O2 by annexin V-FITC/propidium iodide staining based flow cytometric analysis (reference value: 6.2%)
[8] = Neuroprotection against H2O2-induced inflammation in human BV2 cells assessed as reduction in ROS production by measuring mean fluorescence intensity at 2.5 uM after 18 hrs by DCFH-DA staining-based flow cytometric analysis (reference value: 20004)
PC-12 [9] = test: Neuroprotection against H2O2-induced oxidative damage in rat PC12 cells assessed as intracellular Ca2+ level by measuring mean fluorescence intensity at 10 uM after 24 hrs in presence of H2O2 by Fluo-3/AM staining based flow cytometric analysis (reference value: 51697)
PC-12 [10] = test: Neuroprotection against H2O2-induced oxidative damage in rat PC12 cells assessed as intracellular Ca2+ level by measuring mean fluorescence intensity at 5 uM after 24 hrs in presence of H2O2 by Fluo-3/AM staining based flow cytometric analysis (reference value: 43156)
PC-12 [11] = test: Neuroprotection against H2O2-induced oxidative damage in rat PC12 cells assessed as viable cells at 2.5 uM after 24 hrs in presence of H2O2 by annexin V-FITC/propidium iodide staining based flow cytometric analysis (reference value: 63.6%); details: PC-12, 24 h, read-out: Activity
[12] = Neuroprotection against LPS-induced inflammation in […] cells assessed as reduction in ROS production by measuring mean fluorescence intensity at 10 uM after 18 hrs by DCFH-DA staining-based flow cytometric analysis (reference value: 70385)
PC-12 [13] = test: Neuroprotection against H2O2-induced oxidative damage in rat PC12 cells assessed as necrotic cells at 10 uM after 24 hrs in presence of H2O2 by annexin V-FITC/propidium iodide staining based flow cytometric analysis (reference value: 4.5%)
[14] = Neuroprotection against H2O2-induced inflammation in […] cells assessed as reduction in ROS production by measuring mean fluorescence intensity at 10 uM after 18 hrs by DCFH-DA staining-based flow cytometric analysis (reference value: 11273)
[15] = Neuroprotection against LPS-induced inflammation in […] cells assessed as reduction in ROS production by measuring mean fluorescence intensity at 5 uM after 18 hrs by DCFH-DA staining-based flow cytometric analysis (reference value: 70385)
[16] = Neuroprotection against H2O2-induced inflammation in […] cells assessed as reduction in ROS production by measuring mean fluorescence intensity at 2.5 uM after 18 hrs by DCFH-DA staining-based flow cytometric analysis (reference value: 11273)
PC-12 [17] = test: Neuroprotection against H2O2-induced oxidative damage in rat PC12 cells assessed as intracellular Ca2+ level by measuring mean fluorescence intensity at 10 uM after 24 hrs in presence of H2O2 by Fluo-3/AM staining based flow cytometric analysis (reference value: 43156)
PC-12 [18] = test: Neuroprotection against H2O2-induced oxidative damage in rat PC12 cells assessed as early apoptotic cells at 5 uM after 24 hrs in presence of H2O2 by annexin V-FITC/propidium iodide staining based flow cytometric analysis (reference value: 2.1%)
PC-12 [19] = test: Neuroprotection against H2O2-induced oxidative damage in rat PC12 cells assessed as mitochondrial membrane potential at 2.5 uM after 24 hrs in presence of H2O2 by Jc-1 staining based flow cytometric analysis (reference value: 16.35 +/- 3.19%)
PC-12 [20] = test: Neuroprotection against H2O2-induced oxidative damage in rat PC12 cells assessed as late apoptotic cells at 5 uM after 24 hrs in presence of H2O2 by annexin V-FITC/propidium iodide staining based flow cytometric analysis (reference value: 29.8%)
PC-12 [21] = test: Neuroprotection against H2O2-induced oxidative damage in rat PC12 cells assessed as mitochondrial membrane potential at 5 uM after 24 hrs in presence of H2O2 by Jc-1 staining based flow cytometric analysis (reference value: 16.35 +/- 3.19%)
PC-12 [22] = test: Neuroprotection against H2O2-induced oxidative damage in rat PC12 cells assessed as mitochondrial membrane potential at 10 uM after 24 hrs in presence of H2O2 by Jc-1 staining based flow cytometric analysis (reference value: 16.35 +/- 3.19%)
PC-12 [23] = test: as §1, with “82616)” for “102489)”
PC-12 [24] = test: Neuroprotection against H2O2-induced oxidative damage in rat PC12 cells assessed as early apoptotic cells at 10 uM after 24 hrs in presence of H2O2 by annexin V-FITC/propidium iodide staining based flow cytometric analysis (reference value: 2.1%)
PC-12 [25] = test: Neuroprotection against H2O2-induced oxidative damage in rat PC12 cells assessed as late apoptotic cells at 2.5 uM after 24 hrs in presence of H2O2 by annexin V-FITC/propidium iodide staining based flow cytometric analysis (reference value: 29.8%)
[26] = Neuroprotection against LPS-induced inflammation in […] cells assessed as reduction in ROS production by measuring mean fluorescence intensity at 2.5 uM after 18 hrs by DCFH-DA staining-based flow cytometric analysis (reference value: 70385)
PC-12 [27] = test: Neuroprotection against H2O2-induced oxidative damage in rat PC12 cells assessed as viable cells at 5 uM after 24 hrs in presence of H2O2 by annexin V-FITC/propidium iodide staining based flow cytometric analysis (reference value: 63.6%); details: PC-12, 24 h, read-out: Activity

CC(C)=CCc1c(O)cc(/C=C/c2ccc3c(c2)[C@H](c2cc(O)c(CC=C(C)C)c(O)c2)[C@@H](c2ccc(O)cc2)O3)cc1O
Activity (PC-12 [1]): 0.4%
Activity (PC-12 [2]): 10.3%
Flu intensity (PC-12 [3]): 25470
Activity (PC-12 [4]): 0.7%
Activity (PC-12 [5]): 19.4%
Flu intensity [6]: 24076
Activity (PC-12 [7]): 4.2%
Flu intensity [8]: 14563
Flu intensity (PC-12 [9]): 25664

CC(C)=CCc1c(O)cc(/C=C/c2ccc3c(c2)[C@H](c2cc(O)c4c(c2)OC(C)(C)CC4)[C@@H](c2ccc(O)cc2)O3)cc1O
Flu intensity (PC-12 [10]): 37986
viability at 2.5 µM (PC-12 [11]): 68%
Flu intensity [12]: 43811
Activity (PC-12 [13]): 0.6%
Flu intensity [14]: 7407
Flu intensity [15]: 51980
Flu intensity [16]: 11086
Flu intensity (PC-12 [17]): 35826
Activity (PC-12 [18]): 1.9%
Activity (PC-12 [19]): 42.34%
Activity (PC-12 [20]): 12.4%
Activity (PC-12 [21]): 68.51%
Activity (PC-12 [22]): 83.23%
Flu intensity (PC-12 [23]): 56274
Activity (PC-12 [24]): 1.9%
Activity (PC-12 [25]): 25.1%
Flu intensity [26]: 55345
viability at 5 µM (PC-12 [27]): 84%
